The values below come from the OligoGym collection.

This series concerns the target IRF4. The settings on record: ASO.

Several values for one entry are separate records, joined by “and”; a condition that tells them apart may be missing. Equal entries are not always repeated. After the bases stand the sugars from the 5' end (letter, count) and the backbone: PS all phosphorothioate, else s phosphorothioate and o phosphodiester by linkage. Methylation of C is not given here. e = 2'-O-(2-methoxyethyl) (MOE); k = constrained ethyl (cEt); d = 2'-deoxy (DNA)

Regarding GACTCCATGAGGTTTT (sugars k3 d10 k3, PS), the target mRNA inhibition reads like this: (SK-MEL-28, 0.185 µM) 14% and 10% and 1%; (SK-MEL-28, 4 µM) 70%; (SK-MEL-28, 5 µM) 58% and 55% and 77%; (SK-MEL-28, 15 µM) 76% and 78% and 87%. As for AATTCCTCCACTACCA (sugars k3 d10 k3, PS), the target mRNA inhibition (MM.1R, 1 µM) is -41%. Regarding GTGTAAGGTCTGAGAG (sugars k3 d10 k3, PS), the target mRNA inhibition (SK-MEL-28, 4 µM) was 16%. As for ATACACACCCTCGGGC (sugars k3 d10 k3, PS), the target mRNA inhibition (MM.1R, 1 µM) is -10%.

CTAATACCTACCTGCC (sugars k3 d10 k3, PS): for the setting “SK-MEL-28, 4 µM”, the target mRNA inhibition was 47%. On the same count and under the same terms, the value for GCCATTCGAGGTGATT (sugars k3 d10 k3, PS) was 56%. Consider “GCATTTTATCATCCGA (sugars kkdddddddddekeke, PS)”, for which the target mRNA inhibition (MM.1R, 1 µM) is 44%. As for TGCAAAACCAGTACAG (sugars k3 d10 k3, PS), the target mRNA inhibition (SK-MEL-28, 4 µM) came out at 28%. The same measure, in the same setting: the value for TGATGTATACCAACGA (sugars k3 d10 k3, PS) was 62% and 87%; that for TTAAATAAGATCCCAC (sugars k3 d10 k3, PS) was 23%. As to “AGCAGTGATGTCAGGT (sugars kkdddddddddkekek, PS)”, the target mRNA inhibition runs as follows: (MM.1R, 0.0625 µM) 34%; (MM.1R, 0.25 µM) 54%; (MM.1R, 1 µM) 66% and 67% and 64%; (MM.1R, 4 µM) 79%.

On to TAGGCACATCAATGTT (sugars k3 d10 k3, PS), for which, for the setting “MM.1R, 1 µM”, the target mRNA inhibition was 12%.

TTGTTTGCAAGCTATA (sugars k3 d10 k3, PS): the target mRNA inhibition (MM.1R, 1 µM) was 36%.

Consider GCAAAACCCCTCAAGC (sugars k3 d10 k3, PS), for which, where the note is “SK-MEL-28, 4 µM”, the target mRNA inhibition turned out to be 20%. With AACCAATCCCAACACT (sugars k3 d10 k3, PS), where the note is “SK-MEL-28, 4 µM”, the target mRNA inhibition stood at 12%. On to AGAGACCATGTTCAGA (sugars k3 d10 k3, PS), for which the target mRNA inhibition (MM.1R, 1 µM) is 12%. For the sequence TGGCACAGACATACCT (sugars k3 d10 k3, PS), the target mRNA inhibition (SK-MEL-28, 4 µM) came to 38%. On the same count and under the same terms, the figure for CATCGAGATCAGTCTC (sugars k3 d10 k3, PS) is 65%.

Consider “ATGTTAGCCAATTCCT (sugars kddddddddddkekek, PS)”, for which the target mRNA inhibition (MM.1R, 1 µM) was 0% and 7%. In the case of GACGGAGGCGGCAGAC (sugars k3 d10 k3, PS), under “SK-MEL-28, 4 µM”, the target mRNA inhibition is -43%. For CTAGAAAGAGCTGGTA (sugars k3 d10 k3, PS), for the setting “SK-MEL-28, 4 µM”, the target mRNA inhibition is 15%. On the same count and under the same terms, the value for GCATAAAAGGTTCCTG (sugars k3 d10 k3, PS) was 26%. Regarding “AGTATGAGAAACGGCC (sugars kdddddddddkekeke, PS)”, the target mRNA inhibition (MM.1R, 1 µM) was found to be 4%. Consider GGCAAGATGAGAATTC (sugars k3 d10 k3, PS), for which, for the setting “SK-MEL-28, 4 µM”, the target mRNA inhibition was found to be 25%. On the same count and under the same terms, the value for GAGGAGGAGGACTTAT (sugars k3 d10 k3, PS) was 51%. Turning to “GACACTTTTAGAGAGG (sugars k2 d9 e3 k2, PS)”, the target mRNA inhibition (MM.1R, 1 µM) was 25%.

On to “TTCATGTAAAGTCTGC (sugars kkdddddddddkekek, PS)”, for which the target mRNA inhibition (MM.1R, 1 µM) is 10% and 12%.

With “TGTGATAGCTGAGCTG (sugars k2 d9 e3 k2, PS)”, the target mRNA inhibition (MM.1R, 1 µM) is 12%. Still for that read-out and setting: the figure for ACTAAGCTTGATAAAG (sugars k3 d10 k3, PS) is 14% and 5%. Turning to TTGTACAGGACAGGTA (sugars k3 d10 k3, PS), the target mRNA inhibition (SK-MEL-28, 4 µM) is 28%.

For CCAAGGCTACAGGCAC (sugars k3 d10 k3, PS), the target mRNA inhibition (SK-MEL-28, 4 µM) was 63%. Turning to “ATGTGATAGCTGAGCT (sugars kkdddddddddkdkdk, PS)”, the target mRNA inhibition (MM.1R, 1 µM) stood at 27%. Take TGTATTTATGCCCTCG (sugars k3 d10 k3, PS): the target mRNA inhibition (SK-MEL-28, 4 µM) was 44%. Still for that read-out and setting: the figure for TGTGACATAAAGGACC (sugars k3 d10 k3, PS) is 27%. As for CACTTTGTACGGGTCT (sugars k3 d10 k3, PS), where the note is “MM.1R, 1 µM”, the target mRNA inhibition stood at 11%. As to GAGGAAGCCGTTCCTT (sugars k3 d10 k3, PS), the target mRNA inhibition (SK-MEL-28, 4 µM) is 51%. Still for that read-out and setting: the figure for TCCAAACCTTAAGCTA (sugars k3 d10 k3, PS) is 37%; for AAAGAGGCACCCTCCT (sugars k3 d10 k3, PS) it is -38%. Same read-out and setting: the figure for TCGGAGCTGAGGGCAG (sugars k3 d10 k3, PS) is 18%. With “TAGTATGAGAAACGGC (sugars e1 k2 d9 k2 e2, PS)”, the target mRNA inhibition (MM.1R, 1 µM) is 38%.

With “ATGTGTATTACTCTTA (sugars k2 d9 e3 k2, PS)”, the target mRNA inhibition (MM.1R, 1 µM) was 40% and 44%. Turning to CCCATATACATTGAGG (sugars k3 d10 k3, PS), for the setting “MM.1R, 1 µM”, the target mRNA inhibition amounted to 16%.

As to GGAACTCATAGGTGTA (sugars k3 d10 k3, PS), the target mRNA inhibition is 11% and 32% (MM.1R, 0.0625 µM); 26% and 42% (MM.1R, 0.25 µM); 53% and 65% (MM.1R, 1 µM); 75% and 80% (MM.1R, 4 µM).

On to GTAGATCCTGCTCTGG (sugars k3 d10 k3, PS), for which the target mRNA inhibition (SK-MEL-28, 4 µM) came out at 45%.

As for CTGGATTGCTGATGTG (sugars k3 d10 k3, PS), the target mRNA inhibition is 56% and 36% (MM.1R, 1 µM); 83% and 71% (MM.1R, 4 µM). On to ACACATCACTTGGTCA (sugars k3 d10 k3, PS), for which, where the note is “SK-MEL-28, 4 µM”, the target mRNA inhibition was determined as 78%. The same measure, in the same setting: the figure for TCTACCTACTCCATCA (sugars k3 d10 k3, PS) is 47%.

In the case of “AAGTGTCTAAAGTCCC (sugars kkddddddddddkeke, PS)”, where the note is “MM.1R, 1 µM”, the target mRNA inhibition is 10% and 12%.

Take CGAGGTGATTCTCGGG (sugars k3 d10 k3, PS): the target mRNA inhibition (MM.1R, 1 µM) amounted to 15%. Turning to TGTATTACTCTTAGGC (sugars k3 d10 k3, PS), the target mRNA inhibition (MM.1R, 0.0625 µM) worked out at 7%; the target mRNA inhibition (MM.1R, 0.25 µM) came out at 21%; the target mRNA inhibition (MM.1R, 1 µM) was 65% and 41%; the target mRNA inhibition (MM.1R, 4 µM) amounted to 68%. As for TCACGAGCACCTCAGA (sugars k3 d10 k3, PS), the target mRNA inhibition (SK-MEL-28, 4 µM) turned out to be 36%. For the sequence GTTGGCTGGTCTTTGT (sugars k3 d10 k3, PS), the target mRNA inhibition (MM.1R, 1 µM) was 63%. Consider ATCTGGATGAGCTTAC (sugars k3 d10 k3, PS), for which the target mRNA inhibition (SK-MEL-28, 4 µM) was determined as 38%. Consider CTTCCCTGAGAAATGG (sugars k4 d8 k4, PS), for which the target mRNA inhibition (SK-MEL-28, 4 µM) was 36%. With TAACTTCTCCTGTGCA (sugars k3 d10 k3, PS), the target mRNA inhibition (MM.1R, 1 µM) was found to be 15%. As to CATACCTACAAGCAGT (sugars k3 d10 k3, PS), the target mRNA inhibition (SK-MEL-28, 4 µM) was 43%.

For ATCACCGAACACACCA (sugars k3 d10 k3, PS), the target mRNA inhibition (MM.1R, 1 µM) was -12%.

Take AGGCAGTTGTGCCGTC (sugars k3 d10 k3, PS): where the note is “SK-MEL-28, 4 µM”, the target mRNA inhibition is -62%.

For the sequence CGCAAGGCTCGGAGCG (sugars k3 d10 k3, PS), the target mRNA inhibition (SK-MEL-28, 4 µM) was 10%. Consider GATCCTGAGAGTAAAC (sugars k3 d10 k3, PS), for which the target mRNA inhibition (MM.1R, 1 µM) worked out at 6%. On to GTATACCAACGACAGC (sugars k3 d10 k3, PS), for which the target mRNA inhibition (SK-MEL-28, 4 µM) worked out at 78%. Consider GCCAATTCCACTTTAT (sugars k3 d10 k3, PS), for which the target mRNA inhibition (SK-MEL-28, 4 µM) was 64%. In the case of “TGGGATTATATACTGG (sugars kkdddddddddkekek, PS)”, the target mRNA inhibition (MM.1R, 1 µM) was determined as 42%.

GGGCATCCTCAGTTAC (sugars k3 d10 k3, PS): under “SK-MEL-28, 4 µM”, the target mRNA inhibition was 33%.
